According to US5368707A, “Convenient determination of trace lead in whole blood and other fluids” (priority 1993, dated 1994):

Assays:
[1] = test system: Horseradish peroxidase; settings: Guilbault, et al., 1968; cited from earlier work
[2] = target: T1, isocitrate dehydrogenase (Sus scrofa, UniProt P33198); experiment: ICDH inhibition by lead in the presence of EDTA with or without CoSO4 (Example 8); assay type: biochemical, pig; settings: 2 mM EDTA; for Inhibition: 2.5 mM CoSO4
T1 construct: purchased Sigma, St. Louis, Mo; ICD Type VI
T1 sequence (P33198 9-421): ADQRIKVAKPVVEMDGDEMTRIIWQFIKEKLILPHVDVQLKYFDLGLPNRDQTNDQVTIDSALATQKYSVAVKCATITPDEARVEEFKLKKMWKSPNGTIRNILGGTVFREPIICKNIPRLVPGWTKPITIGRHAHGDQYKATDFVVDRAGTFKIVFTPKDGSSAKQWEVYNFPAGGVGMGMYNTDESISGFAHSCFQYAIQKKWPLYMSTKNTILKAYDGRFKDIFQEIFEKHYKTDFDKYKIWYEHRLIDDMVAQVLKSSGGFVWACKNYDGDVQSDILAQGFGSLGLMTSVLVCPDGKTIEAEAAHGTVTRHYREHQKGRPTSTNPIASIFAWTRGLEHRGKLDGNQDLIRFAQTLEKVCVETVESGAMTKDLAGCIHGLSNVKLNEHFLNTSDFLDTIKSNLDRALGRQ
From the text: A major problem in the measurement of lead in blood is the interference by various blood proteins and, as in the majority of clinical samples, the presence of excess amounts of EDTA. The inventors have discovered that lead chelated with EDTA is exchangeable with cobalt(II). As shown in this example, lead Pb(II) is displaced from EDTA by cobalt(II) and detected by its inhibition of isocitrate dehydrogenase (ICDH).
Micromolor concentrations of lead were detected by ICDH inhibition in the presence of 2 mM EDTA and 2.5 mM CoSO4.

[3] = target: T1, isocitrate dehydrogenase; experiment: Effect of pH on inhibition of isocitrate dehydrogenase by lead ion (Example 7); assay type: biochemical, pig; settings: for Current / Inhibition: 1.0 U/mL enzyme, 50 mM Tris
Protocol: (§1) The inventors have shown that less than 1 μg/dL of lead in solution may be measured employing the enzyme isocitrate dehydrogenase. The measurements are sensitive to several factors, including pH, enzyme concentration, co-factor concentration and temperature. The following example illustrates the effect of pH on enzyme inhibition.
Inhibition of the enzyme isocitrate dehydrogenase was calculated based on the amperometric signal (I) which is the mediator oxidation current measured with a glassy carbon electrode at an applied potential of +100 mV. Inhibition was determined as (Iuninhibited -Iinhibited)/Iuninhibited. 50 mM Tris buffer at various pH values as shown in Table 2 was used with 1.0 U/mL enzyme in the solution.

[4] = target: T1, isocitrate dehydrogenase; experiment: Sensitivity of isocitrate dehydrogenase to lead ion (detection level); assay type: biochemical, pig
Protocol: Pig heart NADP-linked isocitric dehydrogenase (ICD, EC 1.1.1.42), an oxidoreductase, is sensitive to trace levels of lead ion as low as 1 μg/dl. […] In fact, at low concentrations of activator, e.g., <200 ppb Mn^++, the activity of ICD is proportional to Mn^++ and may be used to determine activator concentration (Guilbault, 1970). Inactivation by inhibitors is useful for determining inhibitor concentration. Specificity of enzymes for activators, or inhibitors, is not as great as for the natural substrate of the enzyme, but in some cases inhibitor concentration may be selectively determined. Silver and mercury have been determined in the presence of each other using isocitrate dehydrogenase (Mealor and Townshend, 1968). However, until now, there has been no satisfactory rapid amperometric method to determine lead ion based on ICD inhibition, much less a simple method to determine low lead ion concentrations in whole blood.
The inventors have developed a highly sensitive method for the determination of lead ion in solution. Isocitrate dehydrogenase, under specific conditions, may be employed in an assay to quantitatively determine lead ion in the range 0-30 μg per deciliter of solution. Assay sensitivity can be adjusted to a desired concentration range for lead by altering one or more of several parameters such as the concentration of isocitric dehydrogenase. Lower enzyme concentrations increase sensitivity to lead ion.
as §1

For `[Pb+2]` [lead ion], the “linear range of peroxidase inhibition” value [1] is given as 10 to 185 µg/mL, the Inhibition ([2]; 12 μM lead) is given as 23% and the Inhibition ([2]; 36 μM lead) is given as 32%. The Inhibition ([2]; 121 μM lead) was 47%, the “Inhibition (in words)” value ([2]; absence of CoSO4) was “no inhibition was observed” and the Current ([3]; pH 7.5, 5.5 μg/dL Pb) was 749 nA. The Inhibition ([3]; pH 7.5, 5.5 μg/dL Pb) was 0%, the Current ([3]; pH 7.5, 11.1 μg/dL Pb) was 754 nA and the Inhibition ([3]; pH 7.5, 11.1 μg/dL Pb) was 0%. For the same compound, the Current ([3]; pH 7.5, 16.6 μg/dL Pb) was 760 nA, the Inhibition ([3]; pH 7.5, 16.6 μg/dL Pb) was -1% and the Current ([3]; pH 7.5, 22.1 μg/dL Pb) was 750 nA. For the same compound, the Inhibition ([3]; pH 7.5, 22.1 μg/dL Pb) was 0%, the Current ([3]; pH 7.5, 27.6 μg/dL Pb) was 761 nA and the Inhibition ([3]; pH 7.5, 27.6 μg/dL Pb) was -1%. For the same compound, the “Inhibition (in words)” value ([3]; pH 7.5, 27.6 μg/dL lead) was “no significant inhibition”, the “Inhibition (in words)” value ([3]; pH 7.5, up to about 28 mg per deciliter lead (so in the source)) was “very little if any inhibition” and the Current ([3]; pH 8.0, 5.5 μg/dL Pb) was 673 nA. For the same compound, the Inhibition ([3]; pH 8.0, 5.5 μg/dL Pb) was 6%, the Current ([3]; pH 8.0, 11.1 μg/dL Pb) was 613 nA and the Inhibition ([3]; pH 8.0, 11.1 μg/dL Pb) was 14%. The Current ([3]; pH 8.0, 16.6 μg/dL Pb) was 532 nA, the Inhibition ([3]; pH 8.0, 16.6 μg/dL Pb) was 25% and the Current ([3]; pH 8.0, 22.1 μg/dL Pb) was 439 nA. The Inhibition ([3]; pH 8.0, 22.1 μg/dL Pb) was 38%, the Current ([3]; pH 8.0, 27.6 μg/dL Pb) was 303 nA and the Inhibition ([3]; pH 8.0, 27.6 μg/dL Pb) was 58%. The enzyme inhibition ([3]; pH 8, up to about 28 mg per deciliter lead (so in the source)) was “about 60%”, the Current ([3]; pH 8.5, 5.5 μg/dL Pb) was 636 nA and the Inhibition ([3]; pH 8.5, 5.5 μg/dL Pb) was 18%. The Current ([3]; pH 8.5, 11.1 μg/dL Pb) was 522 nA, the Inhibition ([3]; pH 8.5, 11.1 μg/dL Pb) was 33% and the Current ([3]; pH 8.5, 16.6 μg/dL Pb) was 406 nA. The Inhibition ([3]; pH 8.5, 16.6 μg/dL Pb) was “less than 50%”, the Inhibition ([3]; pH 8.5, 16.6 μg/dL Pb, listed as Lead ion) was 48% and the Current ([3]; pH 8.5, 22.1 μg/dL Pb) was 241 nA. The Inhibition ([3]; pH 8.5, 22.1 μg/dL Pb) was 69%, the Current ([3]; pH 8.5, 27.6 μg/dL Pb) was 99 nA and the Inhibition ([3]; pH 8.5, 27.6 μg/dL Pb, listed as Lead ion) was 87%. The Inhibition ([3]; pH 8.5, 27.6 μg/dL Pb, listed as lead) was “approximately 87%”, the enzyme inhibition ([3]; pH 8.5, up to about 28 mg per deciliter lead (so in the source)) was “about 90%” and the Current ([3]; pH 9.0, 5.5 μg/dL Pb) was 4 nA. For the same compound, the Inhibition ([3]; pH 9.0, 5.5 μg/dL Pb) was 99%, the Current ([3]; pH 9.0, 11.1 μg/dL Pb) was 21 nA and the Inhibition ([3]; pH 9.0, 11.1 μg/dL Pb) was 98%. The “Inhibition (in words)” value ([3]; pH 9.0, between 0 and 5.5 mg per deciliter lead (so in the source)) was “complete inhibition”, the “Inhibition (in words)” value ([3]; pH 9.0, up to 5.5 μg/dL lead) was “completely inhibited” and the “reversibility of binding to ICDH” value [4] was “binds irreversibly to the enzyme”. For the same compound, the “detectable lead ion level” value ([4]; ICDH inhibition) was ~1 µg/dL and the “quantitatively determinable lead range” value ([4]; isocitrate dehydrogenase assay, in solution) was 0-30 μg per deciliter.
